Measured values: ChEMBL document CHEMBL3112399, “Discovery of pyrazolo[3,4-d]pyrimidine derivatives as GPR119 agonists” (Bioorg Med Chem Lett, 2014)
In brackets after ≈: the same amount, converted by molar mass. Activity calls are given as the source filed them. The rule behind the calls is not given here.

Assays:
HIT-T15 = test: Agonist activity at GPR119 receptor in hamster HIT-T15 cells assessed as intracellular cAMP level relative to AR-231,453; assay type: cell-based; conditions: Cricetinae
[1] = Agonist activity at GPR119 receptor in hamster HIT-T15 cells assessed as intracellular cAMP level; assay type: cell-based; conditions: Cricetinae
Cytochrome P450 2C9 = Cytochrome P450 2C9 (Homo sapiens, UniProt P11712); test: Inhibition of CYP2C9 (unknown origin); assay type: ADME
Chain of Cytochrome P450 2C9 (P11712 whole entry): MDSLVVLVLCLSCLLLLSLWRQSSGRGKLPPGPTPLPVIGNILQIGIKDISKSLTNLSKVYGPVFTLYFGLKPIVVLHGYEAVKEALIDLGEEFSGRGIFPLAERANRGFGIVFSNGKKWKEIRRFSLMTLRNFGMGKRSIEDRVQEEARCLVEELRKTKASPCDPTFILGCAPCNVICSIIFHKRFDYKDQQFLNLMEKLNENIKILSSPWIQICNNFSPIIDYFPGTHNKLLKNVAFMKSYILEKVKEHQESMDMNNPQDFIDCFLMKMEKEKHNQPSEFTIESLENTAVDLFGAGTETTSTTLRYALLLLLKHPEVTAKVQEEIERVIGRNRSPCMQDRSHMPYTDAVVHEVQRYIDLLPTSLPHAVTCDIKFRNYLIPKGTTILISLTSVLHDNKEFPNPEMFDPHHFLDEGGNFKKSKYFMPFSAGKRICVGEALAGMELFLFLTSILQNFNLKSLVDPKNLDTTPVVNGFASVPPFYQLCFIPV

hERG (KCNH2) = hERG (KCNH2) (Homo sapiens, UniProt Q12809); test: Inhibition of human ERG channel
Chain of hERG (KCNH2) (Q12809 whole entry): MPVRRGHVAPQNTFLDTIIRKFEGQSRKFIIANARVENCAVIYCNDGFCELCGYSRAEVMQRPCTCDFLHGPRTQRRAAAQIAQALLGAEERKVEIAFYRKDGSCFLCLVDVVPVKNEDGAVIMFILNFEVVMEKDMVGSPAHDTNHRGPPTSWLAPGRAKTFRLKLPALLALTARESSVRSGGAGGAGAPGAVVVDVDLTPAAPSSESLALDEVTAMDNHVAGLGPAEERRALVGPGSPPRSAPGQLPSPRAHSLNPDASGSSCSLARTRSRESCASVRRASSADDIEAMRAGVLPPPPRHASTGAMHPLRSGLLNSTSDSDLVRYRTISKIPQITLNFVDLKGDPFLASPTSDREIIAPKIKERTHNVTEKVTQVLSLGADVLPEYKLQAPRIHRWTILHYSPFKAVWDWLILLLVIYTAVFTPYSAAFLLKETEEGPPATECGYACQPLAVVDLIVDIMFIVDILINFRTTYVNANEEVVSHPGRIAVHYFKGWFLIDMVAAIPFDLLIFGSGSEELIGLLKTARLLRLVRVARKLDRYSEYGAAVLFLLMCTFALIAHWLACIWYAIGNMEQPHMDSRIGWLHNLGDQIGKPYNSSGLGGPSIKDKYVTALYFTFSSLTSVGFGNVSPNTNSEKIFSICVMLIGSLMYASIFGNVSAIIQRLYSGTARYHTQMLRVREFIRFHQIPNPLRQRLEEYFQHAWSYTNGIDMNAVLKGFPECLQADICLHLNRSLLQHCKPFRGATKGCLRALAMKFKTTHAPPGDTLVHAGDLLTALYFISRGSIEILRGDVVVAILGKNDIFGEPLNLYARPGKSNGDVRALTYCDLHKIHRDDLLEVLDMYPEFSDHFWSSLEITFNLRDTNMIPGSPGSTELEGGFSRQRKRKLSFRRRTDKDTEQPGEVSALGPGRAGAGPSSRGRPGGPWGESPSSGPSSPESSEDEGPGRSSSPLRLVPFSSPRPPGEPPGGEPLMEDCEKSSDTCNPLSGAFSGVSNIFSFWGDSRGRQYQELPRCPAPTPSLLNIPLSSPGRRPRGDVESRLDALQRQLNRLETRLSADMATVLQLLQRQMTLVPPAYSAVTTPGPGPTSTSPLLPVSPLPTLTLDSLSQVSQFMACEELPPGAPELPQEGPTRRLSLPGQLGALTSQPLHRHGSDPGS

[2] = Kinetic solubility of the compound at pH 6.5; assay type: physicochemical; conditions: buffer, read-out: Kinetic_solubility
[3] = Clearance in mouse liver microsomes; assay type: ADME, Microsome; conditions: read-out: CLH
[4] = Half life in mouse at 5 mg/kg, iv; assay type: ADME, organism-based; set-up: dose 5 mg/kg, route intravenous; conditions: in vivo
Hepatocyte = test: Metabolic stability of the compound in mouse hepatocytes assessed as glutathione adduct formation; assay type: ADME, cell-based
[5] = Cmax in mouse at 10 mg/kg, po; assay type: ADME, organism-based; set-up: dose 10 mg/kg, route oral; conditions: in vivo
Mus musculus = test: Antihyperglycemic activity in C57Bl/6J mouse assessed as reduction of AUC (0 to 120 mins) of glucose excursion at 30 mg/kg, po administered 2 hrs before glucose challenge; assay type: functional; set-up: scale not given: the % may be the effect or the level left
[6] = AUC in mouse at 5 mg/kg, iv; assay type: ADME, organism-based; set-up: dose 5 mg/kg, route intravenous; conditions: plasma
[7] = Clearance in mouse at 5 mg/kg, iv; assay type: ADME, organism-based; set-up: dose 5 mg/kg, route intravenous; conditions: in vivo
[8] = Tmax in mouse at 10 mg/kg, po; assay type: ADME, organism-based; set-up: dose 10 mg/kg, route oral; conditions: in vivo
[9] = AUC in mouse at 10 mg/kg, po; assay type: ADME, organism-based; set-up: dose 10 mg/kg, route oral; conditions: plasma
[10] = Volume of distribution in mouse at 5 mg/kg, iv; assay type: ADME, organism-based; set-up: dose 5 mg/kg, route intravenous; conditions: in vivo
[11] = Oral bioavailability in mouse at 10 mg/kg; assay type: ADME, organism-based; conditions: in vivo
Cytochrome P450 3A4 = Cytochrome P450 3A4 (Homo sapiens, UniProt P08684); test: Inhibition of CYP3A4 (unknown origin); assay type: ADME
Chain of Cytochrome P450 3A4 (P08684 whole entry): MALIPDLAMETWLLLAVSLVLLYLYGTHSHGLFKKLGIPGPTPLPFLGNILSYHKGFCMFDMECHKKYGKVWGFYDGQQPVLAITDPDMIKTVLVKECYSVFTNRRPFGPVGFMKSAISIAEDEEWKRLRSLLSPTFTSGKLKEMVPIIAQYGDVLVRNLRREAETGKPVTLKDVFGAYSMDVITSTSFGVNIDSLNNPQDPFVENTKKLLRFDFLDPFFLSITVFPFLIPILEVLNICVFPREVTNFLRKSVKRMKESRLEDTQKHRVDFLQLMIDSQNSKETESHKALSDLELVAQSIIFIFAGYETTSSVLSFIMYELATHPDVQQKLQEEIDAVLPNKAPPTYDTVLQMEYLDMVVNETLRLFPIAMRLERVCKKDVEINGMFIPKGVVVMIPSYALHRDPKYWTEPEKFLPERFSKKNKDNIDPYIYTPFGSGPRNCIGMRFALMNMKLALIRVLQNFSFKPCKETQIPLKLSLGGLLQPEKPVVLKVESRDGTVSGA

Structure (SMILES): CC(C)(C)OC(=O)N1CCC(n2ncc3c(Oc4ccc(F)cc4)ncnc32)CC1
- Emax (HIT-T15): 82%
- EC50 [1]: 0.54 µM

Structure (SMILES): CC(C)(C)OC(=O)N1CCC(n2ncc3c(Oc4ccc(C(F)(F)F)cc4)ncnc32)CC1
- Emax (HIT-T15): 27%
- EC50 [1]: > 25 µM

Structure (SMILES): CS(=O)(=O)c1ccc(Oc2ncnc3c2cnn3C2CCN(C(=O)CCc3ccccc3)CC2)cc1
- Emax (HIT-T15): 94%
- EC50 [1]: 1 µM

Structure (SMILES): CC(C)(C)OC(=O)N1CCC(n2ncc3c(Oc4cc(F)c(F)cc4F)ncnc32)CC1
- Emax (HIT-T15): 95%
- EC50 [1]: 0.088 µM

Structure (SMILES): CC(C)(C)OC(=O)N1CCC(n2ncc3c(Oc4ccccc4)ncnc32)CC1
- Emax (HIT-T15): 30%
- EC50 [1]: > 25 µM

Structure (SMILES): CS(=O)(=O)c1ccc(Oc2ncnc3c2cnn3C2CCN(C(=O)OCC(Cl)(Cl)Cl)CC2)cc1
- Emax (HIT-T15): 90%
- EC50 [1]: 0.018 µM

Structure (SMILES): CC(C)(C)OC(=O)N1CCC(n2ncc3c(Nc4ccc(S(C)(=O)=O)cc4F)ncnc32)CC1
- Emax (HIT-T15): 103%
- EC50 [1]: 0.24 µM
- IC50 (Cytochrome P450 2C9): 0.9 µM
- IC20 (hERG (KCNH2)): 2.6 µM
- solubility kinetic [2]: 8 µg/mL (≈ 16.3 µM)
- microsomal CLint [3]: 70 µL/min/mg

Structure (SMILES): CS(=O)(=O)c1ccc(Nc2ncnc3c2cnn3C2CCN(Cc3ccccc3)CC2)cc1
- Emax (HIT-T15): 64%
- EC50 [1]: 19 µM

Structure (SMILES): CC(C)OC(=O)N1CCC(n2ncc3c(Oc4ccc(S(C)(=O)=O)cc4)ncnc32)CC1
- half-life [4]: 1.6 h
- Emax (HIT-T15): 92%
- Stability (Hepatocyte): Unstable
- Cmax [5]: 13.2 µM
- EC50 [1]: 0.15 µM
- Activity (Mus musculus): 44%
- AUC [6]: 25.3 µg·h/mL
- IC50 (Cytochrome P450 2C9): > 6 µM
- clearance [7]: 0.198 L/h/kg
- IC20 (hERG (KCNH2)): 0.5 µM
- Tmax [8]: 4 h
- AUC [9]: 41.3 µg·h/mL
- Vd [10]: 0.46 L/kg
- solubility kinetic [2]: < 1 µg/mL
- microsomal CLint [3]: 85 µL/min/mg
- bioavailability [11]: 82%
- IC50 (Cytochrome P450 3A4): > 6 µM

Structure (SMILES): CS(=O)(=O)c1ccc(Oc2ncnc3c2cnn3C2CCN(Cc3ccc(C(F)(F)F)cc3)CC2)cc1
- Emax (HIT-T15): 59%
- EC50 [1]: 0.036 µM
- IC50 (Cytochrome P450 2C9): > 6 µM
- IC20 (hERG (KCNH2)): 0.2 µM
- solubility kinetic [2]: < 1 µg/mL
- microsomal CLint [3]: 114 µL/min/mg
- IC50 (Cytochrome P450 3A4): 1.8 µM

Structure (SMILES): CC(C)(C)OC(=O)N1CCC(n2ncc3c(Oc4ccc(C(C)(C)C)cc4)ncnc32)CC1
- Emax (HIT-T15): 13%
- EC50 [1]: > 25 µM

Structure (SMILES): CC(C)COC(=O)N1CCC(n2ncc3c(Oc4ccc(S(C)(=O)=O)cc4)ncnc32)CC1
- Emax (HIT-T15): 84%
- EC50 [1]: 0.11 µM

Structure (SMILES): CC(C)(C)OC(=O)N1CCC(n2ncc3c(Oc4ccccc4F)ncnc32)CC1
- Emax (HIT-T15): 107%
- EC50 [1]: 0.19 µM

Structure (SMILES): CC(C)CC(=O)N1CCC(n2ncc3c(Oc4ccc(S(C)(=O)=O)cc4)ncnc32)CC1
- Emax (HIT-T15): 59%
- EC50 [1]: 0.33 µM
- IC50 (Cytochrome P450 2C9): > 25 µM
- IC20 (hERG (KCNH2)): 2.7 µM
- solubility kinetic [2]: 32 µg/mL (≈ 69.9 µM)
- microsomal CLint [3]: 29 µL/min/mg
- IC50 (Cytochrome P450 3A4): > 25 µM

Structure (SMILES): CC(C)(C)OC(=O)N1CCC(n2ncc3c(Oc4ccccc4C#N)ncnc32)CC1
- EC50 [1]: 0.061 µM

Structure (SMILES): CC(C)(C)OC(=O)N1CCC(n2ncc3c(Nc4ccc(S(C)(=O)=O)cc4)ncnc32)CC1
- Emax (HIT-T15): 105%
- EC50 [1]: 1.4 µM

Structure (SMILES): CC(C)(C)OC(=O)N1CCC(n2ncc3c(Oc4ccc(C#N)cc4)ncnc32)CC1
- Emax (HIT-T15): 87%
- EC50 [1]: 0.58 µM

Structure (SMILES): CCOC(=O)N1CCC(n2ncc3c(Oc4ccc(S(C)(=O)=O)cc4)ncnc32)CC1
- Emax (HIT-T15): 81%
- EC50 [1]: 0.65 µM

Structure (SMILES): CC(C)OC(=O)N1CCC(n2ncc3c(Nc4ccc(S(C)(=O)=O)cc4)ncnc32)CC1
- Emax (HIT-T15): 92%
- EC50 [1]: 5.74 µM

Structure (SMILES): CS(=O)(=O)c1ccc(Oc2ncnc3c2cnn3C2CCN(Cc3ccccc3)CC2)cc1
- Emax (HIT-T15): 87%
- EC50 [1]: 0.58 µM

Structure (SMILES): CC(C)(C)OC(=O)N1CCC(n2ncc3c(Oc4ccc(S(C)(=O)=O)cc4)ncnc32)CC1
- Emax (HIT-T15): 101%
- EC50 [1]: 0.043 µM
- Activity (Mus musculus): inactive
- IC50 (Cytochrome P450 2C9): > 3 µM
- IC20 (hERG (KCNH2)): 2.7 µM
- solubility kinetic [2]: < 1 µg/mL
- microsomal CLint [3]: 86 µL/min/mg
- IC50 (Cytochrome P450 3A4): 3.1 µM

Structure (SMILES): CC(C)(C)CC(=O)N1CCC(n2ncc3c(Oc4ccc(S(C)(=O)=O)cc4)ncnc32)CC1
- Emax (HIT-T15): 58%
- EC50 [1]: 0.27 µM

Structure (SMILES): CC(C)(C)COC(=O)N1CCC(n2ncc3c(Oc4ccc(S(C)(=O)=O)cc4)ncnc32)CC1
- Emax (HIT-T15): 93%
- EC50 [1]: 0.1 µM

Structure (SMILES): CS(=O)(=O)c1ccc(Oc2ncnc3c2cnn3C2CCN(Cc3ccc(F)cc3)CC2)cc1
- Emax (HIT-T15): 69%
- EC50 [1]: 0.2 µM

Structure (SMILES): CS(=O)(=O)c1ccc(Oc2ncnc3c2cnn3C2CCN(Cc3cccc(Cl)c3)CC2)cc1
- Emax (HIT-T15): 83%
- EC50 [1]: 0.28 µM

Structure (SMILES): CC(C)(C)OC(=O)N1CCC(n2ncc3c(Nc4cc(F)c(F)cc4F)ncnc32)CC1
- Emax (HIT-T15): 97%
- EC50 [1]: 0.53 µM

Structure (SMILES): CS(=O)(=O)c1ccc(Oc2ncnc3c2cnn3C2CCN(Cc3ccc(Cl)cc3)CC2)cc1
- Emax (HIT-T15): 73%
- EC50 [1]: 0.57 µM

Structure (SMILES): CC(C)C(=O)N1CCC(n2ncc3c(Oc4ccc(S(C)(=O)=O)cc4)ncnc32)CC1
- Emax (HIT-T15): 60%
- EC50 [1]: 0.99 µM

Structure (SMILES): CS(=O)(=O)c1ccc(Oc2ncnc3c2cnn3C2CCN(Cc3cccc(OC(F)(F)F)c3)CC2)cc1
- Emax (HIT-T15): 54%
- EC50 [1]: 0.12 µM

Structure (SMILES): COc1cc(OC)cc(Oc2ncnc3c2cnn3C2CCN(C(=O)OC(C)(C)C)CC2)c1
- Emax (HIT-T15): 34%
- EC50 [1]: 6.4 µM

Structure (SMILES): CC(C)(C)OC(=O)N1CCC(n2ncc3c(Oc4cccc(C(C)(C)C)c4)ncnc32)CC1
- Emax (HIT-T15): 27%
- EC50 [1]: > 25 µM

Structure (SMILES): CC(=O)c1ccc(Oc2ncnc3c2cnn3C2CCN(C(=O)OC(C)(C)C)CC2)cc1
- Emax (HIT-T15): 83%
- EC50 [1]: 0.16 µM
